Experimental data: ChEMBL document CHEMBL1201862, “PubChem BioAssay data set” (2004)
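Protocol summary: plate cells (96-well), add compound at 5 concentrations, incubate 48 h, interpolate endpoints linearly. Here, GI50 denotes the concentration required for 50% inhibition of growth.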 Active and inactive are the calls of the source. Rule as the data show it: active = GI50 up to about 1.1 µM and inactive = higher.

Columns and labels:
Assay in all cases: NCI anticancer screen, dose series, 48 h
CCRF-CEM = system: CCRF-CEM
COLO 205 = system: COLO 205
HL-60 = system: HL-60
HT-29 = system: HT-29
IGROV-1 = system: IGROV-1
LOX IMVI = system: LOX IMVI
M14 = system: M14
M19-MEL = system: M19-MEL
NCI-H460 = system: NCI-H460
OVCAR-3 = system: OVCAR-3
OVCAR-5 = system: OVCAR-5
SF-268 = system: SF-268
SK-MEL-2 = system: SK-MEL-2
UACC-257 = system: UACC-257
SF-539 = system: SF-539
BT-549 = system: BT-549
HOP-92 = system: HOP-92
Hs-578T = system: Hs-578T
MCF7 = system: MCF7
T47D = system: T47D

Row | SMILES | GI50 (CCRF-CEM) | GI50 (COLO 205) | GI50 (HL-60) | GI50 (HT-29) | GI50 (IGROV-1) | GI50 (LOX IMVI) | GI50 (M14) | GI50 (M19-MEL) | GI50 (NCI-H460) | GI50 (OVCAR-3) | GI50 (OVCAR-5) | GI50 (SF-268) | GI50 (SK-MEL-2) | GI50 (UACC-257) | GI50 (SF-539) | GI50 (BT-549) | GI50 (HOP-92) | GI50 (Hs-578T) | GI50 (MCF7) | GI50 (T47D)
1 | CCN1CCC(O)(/C=C/c2ccc(Cl)cc2)C(C(=O)/C=C/c2ccc(Cl)cc2)C1 (stereo unspecified) | 22.7 µM (inactive) | 71.4 µM (inactive) | 17.5 µM (inactive) | 18.6 µM (inactive) | 27.1 µM (inactive) | 16.2 µM (inactive) | 34.6 µM (inactive) | 29.9 µM (inactive) | 28 µM (inactive) | 18.9 µM (inactive) | 30.8 µM (inactive) | 30.4 µM (inactive) | 69.3 µM (inactive) | 17.5 µM (inactive) |  |  |  |  |  | 
2 | C[P+]1(c2ccccc2)CCCCC1 | > 100 µM (inactive) | > 100 µM (inactive) |  | > 100 µM (inactive) | > 100 µM (inactive) | > 100 µM (inactive) | > 100 µM (inactive) | > 100 µM (inactive) | > 100 µM (inactive) | > 100 µM (inactive) | > 100 µM (inactive) | > 100 µM (inactive) | > 100 µM (inactive) | > 100 µM (inactive) | > 100 µM (inactive) |  |  |  |  | 
3 | CC(C)N(C(=O)C12C3C4C5(C#N)C3C1(C#N)C5C42C#N)C(C)C (stereo unspecified) | > 100 µM (inactive) | > 100 µM (inactive) | > 100 µM (inactive) | > 100 µM (inactive) | > 100 µM (inactive) | > 100 µM (inactive) |  | > 100 µM (inactive) | > 100 µM (inactive) | > 100 µM (inactive) | > 100 µM (inactive) | > 100 µM (inactive) | > 100 µM (inactive) | > 100 µM (inactive) | > 100 µM (inactive) |  |  |  |  | 
4 | c1ccc2c(c1)N=C(c1ccc3ccccc3c1)CC(c1cccc3ccccc13)S2 (stereo unspecified) | 12.6 µM (inactive) | 68.7 µM (inactive) | 15.1 µM (inactive) | 30.2 µM (inactive) | 14 µM (inactive) | 25.3 µM (inactive) | 54.8 µM (inactive) | 29.9 µM (inactive) | 29.6 µM (inactive) | 33 µM (inactive) | > 100 µM (inactive) | 48.3 µM (inactive) | > 100 µM (inactive) | 56.6 µM (inactive) | 51.6 µM (inactive) |  |  |  |  | 
5 | C=CCCC12CCCC(=O)C1Sc1ccc3ccccc3c12 (stereo unspecified) | 17.7 µM (inactive) | 12.9 µM (inactive) | 7.08 µM (inactive) | 20.1 µM (inactive) | 33.8 µM (inactive) | 13.6 µM (inactive) | 13.2 µM (inactive) | 24.1 µM (inactive) |  | 13.6 µM (inactive) | 27.5 µM (inactive) | 31.3 µM (inactive) | 13.4 µM (inactive) | 17.1 µM (inactive) | 15.1 µM (inactive) |  |  |  |  | 
6 | Cc1cccc2c1Oc1cc(Cl)ccc1C2NC(=O)CN(C)C (stereo unspecified) | 49.1 µM (inactive) | 33.5 µM (inactive) | 17.1 µM (inactive) | 36.6 µM (inactive) | 35.2 µM (inactive) | 42.6 µM (inactive) | 24 µM (inactive) | 20.9 µM (inactive) | 33.8 µM (inactive) |  | > 100 µM (inactive) | 74.3 µM (inactive) |  | 31.6 µM (inactive) | 80.5 µM (inactive) |  |  |  |  | 
7 | NC(=S)Nc1nc(=S)[nH]c2c1SC1=N/C(=C\c3ccco3)C(=O)N12 | 38.2 µM (inactive) | > 100 µM (inactive) | 19.1 µM (inactive) | > 60.4 µM (inactive) | 45.2 µM (inactive) | 40.6 µM (inactive) | > 60.7 µM (inactive) |  | 68.7 µM (inactive) | > 89.7 µM (inactive) | > 100 µM (inactive) | > 100 µM (inactive) | > 83.4 µM (inactive) | > 100 µM (inactive) | > 77.6 µM (inactive) | > 100 µM (inactive) | > 100 µM (inactive) | > 100 µM (inactive) | 29.1 µM (inactive) | 61.8 µM (inactive)
8 | CC(=O)N1C(CCc2ccccc2)CC(C)(C=O)C1Cc1ccc(O[Si](C(C)C)(C(C)C)C(C)C)cc1 (stereo unspecified) | 1.87 µM (inactive) | 2.93 µM (inactive) | 1.76 µM (inactive) | 2.86 µM (inactive) | 4.9 µM (inactive) | 1.94 µM (inactive) | 1.85 µM (inactive) |  | 2.96 µM (inactive) | 4.8 µM (inactive) | 14.7 µM (inactive) | 4.19 µM (inactive) | 3.48 µM (inactive) | 5.11 µM (inactive) | 2.43 µM (inactive) | 15.6 µM (inactive) | 9.71 µM (inactive) | 3.28 µM (inactive) | 2.05 µM (inactive) | 2.2 µM (inactive)
9 | Cc1ccc(/C=N/n2c(=O)[nH]c3ccccc3c2=O)cc1 | > 100 µM (inactive) | > 100 µM (inactive) | > 100 µM (inactive) | > 100 µM (inactive) | > 100 µM (inactive) | > 100 µM (inactive) | > 100 µM (inactive) |  | > 100 µM (inactive) | > 100 µM (inactive) | > 100 µM (inactive) | > 100 µM (inactive) | > 100 µM (inactive) | > 100 µM (inactive) | > 100 µM (inactive) | > 100 µM (inactive) | > 100 µM (inactive) | > 100 µM (inactive) | > 100 µM (inactive) | > 100 µM (inactive)
10 | C/C=C(\C)c1cc(O)c(C)c2c1Oc1cc(O)c(Cl)c(C)c1C(=O)O2 |  | 25.3 µM (inactive) | 36 µM (inactive) | 19.2 µM (inactive) |  | 17.6 µM (inactive) | 20.1 µM (inactive) | 34 µM (inactive) | 20 µM (inactive) |  | 16.6 µM (inactive) | 30.5 µM (inactive) | 21.5 µM (inactive) | 21.5 µM (inactive) | 20 µM (inactive) |  |  |  |  | 
11 | Clc1ccc(C(c2ccc(Cl)cc2)N2CCNCC2)cc1 | 2.34 µM (inactive) | 1.96 µM (inactive) | 1.86 µM (inactive) | 2.03 µM (inactive) | 1.77 µM (inactive) | 1.92 µM (inactive) | 1.73 µM (inactive) |  | 2.05 µM (inactive) | 1.9 µM (inactive) | 6.78 µM (inactive) | 4.95 µM (inactive) | 1.85 µM (inactive) | 2.12 µM (inactive) | 1.87 µM (inactive) | 16.9 µM (inactive) | 3.01 µM (inactive) | 2.74 µM (inactive) | 1.91 µM (inactive) | 2.04 µM (inactive)
12 | CC(=O)OCCOCNC(=S)N/N=C/c1ccc2ccccc2n1 | 54 µM (inactive) | 26.5 µM (inactive) | 36.4 µM (inactive) | 40.6 µM (inactive) | 44.6 µM (inactive) | 43 µM (inactive) | 32.5 µM (inactive) | 28.6 µM (inactive) | 27.5 µM (inactive) | 35.3 µM (inactive) | 14.3 µM (inactive) | 34.9 µM (inactive) | > 100 µM (inactive) | 48.9 µM (inactive) | 46.9 µM (inactive) |  |  |  |  | 
13 | C=C1CC2(C[C@@H](c3ccccc3)O[C@@H](c3ccccc3)C2)OC1=O (stereo partly specified) | 1.71 µM (inactive) | 2.03 µM (inactive) | 0.44 µM (active) | 2.92 µM (inactive) | 2.71 µM (inactive) | 1.25 µM (inactive) | 1.77 µM (inactive) |  | 10.2 µM (inactive) | 2.36 µM (inactive) | 13.3 µM (inactive) | 7.31 µM (inactive) | 3.98 µM (inactive) | 3.35 µM (inactive) | 1.92 µM (inactive) | 1.76 µM (inactive) | 5.22 µM (inactive) | 2.31 µM (inactive) | 2.13 µM (inactive) | 1.85 µM (inactive)
